Tests used:
Type in all cases: in vivo, mouse
[1] = test system: Aβ40; experiment: Chronic treatment of APP23 mice: Triton TX-100 soluble Aβ40 in brain
Protocol: (§1) Frozen mouse forebrains were weighed and homogenized in 9 volumes (w/v) of ice-cold TBS-Complete (20 mM Tris-HCl pH 7.4, 137 mM NaCl, 1× Complete [Protease Inhibitor Cocktail Tablets: 1 836 145, Roche Diagnostics GmbH, Penzberg, Germany]) by sonication (90% duty cycle, output control 5, 40-55 pulses, [Sonifier 450, Branson]). After homogenization several 50 μl aliquots were prepared for analysis and were stored at −80° C.
Human Aβ40 and 42 in mice was determined with the Meso Scale Discovery (MSD) 96-well MULTI-ARRAY human/rodent (6E10) Aβ40/42 Assay (Meso Scale Discovery, Rockville, Md., USA) as described in [RD-2010-00284]. The assay was done according to the manufacturer's instructions except for the calibration curve and the sample preparations. TritonX-100 (TX-100) soluble Aβ40 and 42 was extracted from forebrain with 1% TX-100 using a 50 μl aliquot of each 1:10 forebrain homogenate, mixed with 50 μl 2% TX-100 in TBS complete (20 mM Tris-HCl pH 7.4, 137 mM NaCl, 1× Complete [Protease Inhibitor Cocktail Tablets: 1 836 145, Roche Diagnostics GmbH, Penzberg Germany]) to reach a final concentration of 1% TX-100 and a 1:20 forebrain dilution. The samples were incubated for 15 min on ice and vortexed every 5 min. The samples were ultra-centrifuged (100000×g, 4° C., 15 min) and 50 μl of the clear supernatants were transferred to fresh tubes. The supernatants were further diluted 1:5 in 3% Blocker A solution (from kit) to a final forebrain dilution of 1:100 and applied to the plate.
(§2) The calibration curve was prepared in a corresponding dilution of 1% Blocker A solution spiked with synthetic Aβ1-40 peptide (1.56-100 pg/ml) except for non-transgenic mouse brain samples: In this case, the calibration curve was prepared in a correspondingly diluted APP knockout mouse forebrain spiked with synthetic Aβ1-40 peptide (1.56-100 pg/ml). For all samples and standards 25 μl were applied per well. For each determination duplicate wells were done. The mean values from the duplicate wells were used for calculations. The relative units for samples and standards were imported into SOFTmax PRO 4.0 for calculation of standard curves and quantification of samples.
Brain homogenates were extracted with 1% Triton X-100 in buffer and the resulting supernatant was considered to represent soluble forms of APP metabolites. In addition to Aβ40 and 42, we determined the N-terminal APP fragments sAPPα (direct cleavage product of α-secretase) and sAPPβ (Swe) (direct product of BACE1 cleavage). […] Since no change in the APP expression and Aβ generation is known to happen during this age, it is assumed that the increased values in the vehicle group (18-20 mo old) arise from “leakage” out of the Aβ deposits (which increase several fold, see below).

[2] = test system: Aβ42; experiment: Chronic treatment of APP23 mice: Triton TX-100 soluble Aβ42 in brain
Protocol: as §1
Human Aβ40 and 42 in mice was determined with the Meso Scale Discovery (MSD) 96-well MULTI-ARRAY human/rodent (6E10) Aβ40/42 Assay (Meso Scale Discovery, Rockville, Md., USA) as described in [RD-2010-00284]. The assay was done according to the manufacturer's instructions except for the calibration curve and the sample preparations. […]
as §2, with “For all samples and standards 25 μl were applied per well. For each determination duplicate wells were done. The mean values from the duplicate wells were used for calculations.” left out, “samples. […]” for “samples.”

[3] = test system: Aβ40; experiment: Chronic treatment of APP23 mice: formic acid soluble Aβ40 in forebrain; conditions: high Compound 1 treatment group
Protocol: as §1
Fifty microliter of forebrain homogenate was mixed with 116.6 μl 100% formic acid, resulting in a final formic acid concentration of 70%. Samples were stored on ice and vortexed every 5 minutes. For neutralization, 50 μl of the mixture were pipetted into a new tube, and 950 μl of 1 M Tris base, containing 1× Complete Protease inhibitor, was added. Tubes were stored at room temperature overnight and then centrifuged for 15 minutes at 14000 rpm in an Eppendorf Microzentrifuge at 4° C. From the top layer, 100 μl are removed and mixed with 100 μl of 3% Blocker A solution (part of the MesoScale assay kit). This sample was either directly applied to the assay plate (dilution 1:1332) or further diluted in 1% Blocker A solution.
Amyloid-β42 increased more than Aβ40 (Aβ42/40 ratio increased by 55% in the vehicle group), in agreement with its higher aggregation propensity.

[4] = test system: APP23 mice; experiment: 13-week oral safety study in aged APP23 mice: post-mortem macroscopic and brain microscopic examination (H&E, Perls' Prussian blue)
Text: Sections of brain were collected at necropsy from all scheduled animals. […] Rest of the brain was fixed in 10% neutral-buffered formalin.
Four brain sections were processed and stained with hematoxylin and eosin (H&E) and Perls' Prussian blue for hemosiderin deposits, levels 2, 3, 4, as described in Bolon B et al., 2013, and one additional slide at hypothalamus level (level 2′).
Procedure for brain collection: Cerebellum was separated from cerebrum. Remaining cerebrum (from the anterior to level 5) was transferred into formalin for pathology.
Brain sections stained with haematoxylin and eosin and with Perls' Prussian blue, were examined under a light microscope. The distribution, size and staining intensity of hemosiderin deposits in Perls' Prussian blue-stained sections were assessed based on the grading scheme in Table 37.

[5] = aged APP23 mice, brain, H&E, after 3 months treatment
[6] = aged APP23 mice, brain, H&E, after 3 months treatment, Grade 1 = minimal
[7] = aged APP23 mice, brain, H&E, after 3 months treatment, grade 2 = slight
[8] = aged APP23 mice, brain, after 3 months treatment
[9] = aged APP23 mice, brain, after 3 months treatment, Grade 1 = minimal
[10] = aged APP23 mice, brain, after 3 months treatment, grade 2 = slight

For `C[C@@]1(c2nc(NC(=O)c3ncc(C(F)(F)F)cc3Cl)ccc2F)CO[C@@](C)(C(F)(F)F)C(N)=N1` [Compound 1, N-(6-((3R,6R)-5-amino-3,6-dimethyl-6-(trifluoromethyl)-3,6-dihydro-2H-1,4-oxazin-3-yl)-5-fluoropyridin-2-yl)-3-chloro-5-(trifluoromethyl)picolinamide], the “Aβ40 change vs vehicle (TX-100 soluble)” value ([1]; 0.03 g/kg vs vehicle) was −4.6%, the “Aβ40 change vs vehicle (TX-100 soluble)” value ([1]; 0.3 g/kg vs vehicle) was −43.7% and the “treatment effects on soluble Aβ species from brain tissue and Aβ40 in CSF” value ([1]; high Compound 1 dose) was −43.7 to −77%. The “treatment effects on soluble Aβ species from brain tissue and Aβ40 in CSF” value ([1]; low Compound 1 dose) was −4.6 to −20%, the “Aβ42 change vs vehicle (TX-100 soluble)” value ([2]; 0.03 g/kg vs vehicle) was −20.1% and the “Aβ42 change vs vehicle (TX-100 soluble)” value ([2]; 0.3 g/kg vs vehicle) was −77.3%. The “reduction of deposited Aβ40 and 42 vs vehicle” value [3] was “around 80%”, the Blood vessel inflammation ([4]; 3 months treatment) was “least marked” and the “mineralisation of plaques in the thalamus” value ([4]; 3 months treatment) was “no indication of an effect”. For the same molecule, the “thrombus formation in affected blood vessels or small areas of previous necrosis (infarct)” value ([4]; 3 months treatment) was “not”, the “extent of plaque formation” value ([4]; 3 months treatment, compared to the other groups) was “appeared reduced in some” and the “Amyloid plaques, % affected” value [4, 5] was 100%. For the same molecule, the “Haemorrhage, % affected” value [4, 5] was 7%, the “Inflammation, vessel, % affected” value [4, 5] was 27% and the “Haemorrhage, number of animals with Grade 1” value [4, 6] was 1. The “Inflammation, vessel, number of animals with Grade 1” value [4, 6] was 4, the “Haemorrhage, number of animals with Grade 2” value [4, 7] was 0 and the “Inflammation, vessel, number of animals with Grade 2” value [4, 7] was 0. For the same molecule, the “Amyloid plaques, number of animals with Grade 2” value ([4]; aged APP23 mice, brain, H&E, after 3 months treatment, grade 2 = slight (notably fewer plaques than controls)) was 4, the “Amyloid plaques, number of animals with Grade 3” value ([4]; aged APP23 mice, brain, H&E, after 3 months treatment, grade 3 = moderate (extent in controls)) was 11 and the “Haemosiderin (Perls' staining), % affected” value [4, 8] was 47%. The “Infarct, % affected” value [4, 8] was 0%, the “Mineralisation, % affected” value [4, 8] was 13% and the “Thrombus, % affected” value [4, 8] was 0%. For the same molecule, the “Haemosiderin (Perls' staining), number of animals with Grade 1” value [4, 9] was 7, the “Infarct, number of animals with Grade 1” value [4, 9] was 0 and the “Mineralisation, number of animals with Grade 1” value [4, 9] was 2. The “Thrombus, number of animals with Grade 1” value [4, 9] was 0, the “Haemosiderin (Perls' staining), number of animals with Grade 2” value [4, 10] was 0 and the “Mineralisation, number of animals with Grade 2” value [4, 10] was 0. The “Thrombus, number of animals with Grade 2” value [4, 10] was 0 and the “Haemosiderin (Perls' staining), number of animals with Grade 3” value ([4]; aged APP23 mice, brain, after 3 months treatment, grade 3 = moderate) was 0.

From patent publication US10722518B2, “Oxazine derivative for use in the treatment or prevention of cerebral amyloid angiopathy” (Novartis AG, priority 2016, dated 2020)
